Experimental data published in patent publication US9415047B2, “Use of benzo five-membered nitrogen heterocyclic piperazine or piperidine derivatives” (Liaoning Emmy Biological Pharmaceutical Co., Ltd., priority 2012, dated 2016).

What was measured:
[1] = test system: AD constricted rabbit aorta; assay: Relaxing effects on vascular smooth muscle constricted by adrenaline hydrochloride (AD) in vitro; settings: Oryctolagus cuniculus; relaxation of rabbit aorta constricted by adrenaline (10^−5 mol/L); mean±SEM, n=5
Experimental: Adrenaline hydrochloride (AD) (10^−5 mol/L) was added into a bath tube to induce constriction, when maximal constriction was achieved, the sample was completely flushed, K-H solution was changed for every 20 min. Contents in the tube was balanced for 60 min, when baseline recovered to be stable, the […] was added at the same concentration to induce constriction. When the later maximal constriction response was basically consistent with the former one, the prepared compound solutions were subsequently added, including compound II-1 to II-60 solutions (1×10^−8-1×10^−3 mol/L), compound II-84 to II-123 solutions (1×10^−10-1×10^−2 mol/L) and compound II-124 to II-157 solutions (1×10^−10˜1×10^−3 mol/L), to record the waveforms. Relaxing percentage of the compound was used as Y axis, maximal relaxation response was 100%, negative logarithm of different concentration was used as X axis, to draw dose effect curve (expressed in mean±SEM ( ? ), n=5). Compounds II-2 and II-3 had the most obvious relaxing effects (FIG. 1 and FIG. 8).

[2] = test system: high kalium concentration constricted rabbit aorta; assay: Relaxing effects on vascular smooth muscle constricted by high kalium concentration in vitro; settings: Oryctolagus cuniculus, relaxation of rabbit aorta constricted by high kalium solution (K+ 60 mmol/L); mean±SEM, n=5
Experimental: Adrenaline hydrochloride (AD) (10^−5 mol/L) was added into a bath tube to induce constriction, when maximal constriction was achieved, the sample was completely flushed, K-H solution was changed for every 20 min. Contents in the tube was balanced for 60 min, when baseline recovered to be stable, K-H solution in the bath tube was replaced with high kalium concentration solution to induce constriction. When the later maximal constriction response was basically consistent with the former one, the prepared compound solutions were subsequently added, including compound II-1 to II-60 solutions (1×10^−8-1×10^−3 mol/L), compound II-84 to II-123 solutions (1×10^−10-1×10^−2 mol/L) and compound II-124 to II-157 solutions (1×10^−10-1×10^−3 mol/L), to record the waveforms. Relaxing percentage of the compound was used as Y axis, maximal relaxation response was 100%, negative logarithm of different concentration was used as X axis, to draw dose effect curve (expressed in mean±SEM ( ? ), n=5). Compounds II-2 and II-3 had the most obvious relaxing effects (FIG. 2 and FIG. 9).

| EC50 [1] [µM] | EC50 [2] [µM] | Compound |
| --- | --- | --- |
| 61.7 | 263 | FC(F)(F)c1cccc(N2CCN(CCCCn3ccc4ccccc43)CC2)c1 [II-57, 1-(4-(4-(3-trifluoromethylphenyl)piperazine-1-yl)butyl)-1H-indole] |
| 60.3 | 89.1 | c1cnc(N2CCN(CCCCn3cnc4ccccc43)CC2)nc1 [II-14, 1-(4-(4-(2-pyrimidinyl)piperazine-1-yl)butyl)-1H-benzimidazole] |
| 19.1 | 38 | FC(F)(F)c1cccc(N2CCN(CCCOn3cnc4ccccc43)CC2)c1 [II-23, 1-(4-(4-(3-trifluoromethylphenyl)piperazine-1-yl)propoxyl)-1H-benzimidazole] |
| 16.2 | 29.5 | FC(F)(F)c1cccc(N2CCN(CCCCn3cnc4ccc(Cl)cc43)CC2)c1 [II-25, 6-chloro-1-(4-(4-(3-trifluoromethylphenyl)piperazine-1-yl)butyl)-1H-benzimidazole] |
| 40.7 | 115 | Cc1cc2nnn(CCCCN3CCN(c4cccc(C(F)(F)F)c4)CC3)c2cc1C [II-33, 5,6-dimethyl-1-(4-(4-(3-trifluoromethylphenyl)piperazine-1-yl)butyl)-1H-benzotriazole] |
| 89.1 | 141 | Fc1ccc2c(N3CCN(CCCCn4nnc5ccccc54)CC3)nsc2c1 [II-49, 1-(4-(4-(3-(6-fluorobenzisothiazolyl))piperazine-1-yl)butyl)-1H-benzotriazole] |
| 4.9 | 4.9 | Fc1ccc2c(N3CCN(CCCCn4nnc5ccccc54)CC3)noc2c1 [II-36, 6-fluoro-3-(4-(4-(1H-benzotriazole-1-yl)butyl)piperazine-1-yl)benzisoxazole] |
| 2.75 | 3.72 | Fc1ccc2c(N3CCN(CCCn4nnc5ccccc54)CC3)noc2c1 [II-37, 6-fluoro-3-(4-(3-(1H-benzotriazole-1-yl)propyl)piperazine-1-yl)benzisoxazole] |
| 28.2 | 22.9 | Fc1ccc2c(N3CCN(CCCOn4cnc5ccccc54)CC3)noc2c1 [II-22, 1-(3-(4-(3-(6-fluorobenzisoxazolyl))piperazine-1-yl)propoxyl)-1H-benzimidazole] |
| 46.8 | 81.3 | c1cnc(N2CCN(CCCCn3nnc4ccccc43)CC2)nc1 [II-45, 1-(4-(4-(2-pyrimidinyl)piperazine-1-yl)butyl)-1H-benzotriazole] |
| 29.5 | 61.7 | FC(F)(F)c1cccc(N2CCN(CCCn3ncc4ccccc43)CC2)c1 [II-59, 1-(3-(4-(3-trifluoromethylphenyl)piperazine-1-yl)propyl)-1H-benzopyrazole] |
| 102 | 141 | FC(F)(F)c1cccc(N2CCN(CCCCCn3c(Cl)nc4ccccc43)CC2)c1 [II-28, 2-chloro-1-(5-(4-(3-trifluoromethylphenyl)piperazine-1-yl)pentyl)-1H-benzimidazole] |
| 49 | 87.1 | COC(=O)c1ccc2ncn(CCCCN3CCN(c4cccc(C(F)(F)F)c4)CC3)c2c1 [II-27, 6-methoxycarbonyl-1-(4-(4-(3-trifluoromethylphenyl)piperazine-1-yl)butyl)-1H-benzimidazole] |
| 3.02 | 7.41 | Fc1cccc(N2CCN(CCCCn3nnc4ccccc43)CC2)c1 [II-30, 1-(4-(4-(3-fluorophenyl)piperazine-1-yl)butyl)-1H-benzotriazole] |
| 1.2 | 120 | Fc1ccc2c(C3CCN(CCn4nnc5ccccc54)CC3)noc2c1 [II-143, N-(2-(1-benzotriazolyl)ethyl)-4-(3-(6-fluorobenzisoxazolyl))piperidine] |
| 12.9 | 32.4 | c1ccc2c(c1)nnn2CCCCN1CCN(c2noc3ccccc23)CC1 [II-35, 3-(4-(4-(1H-benzotriazole-1-yl)butyl)piperazine-1-yl)benzisoxazole] |

| Compound | EC50 [1] [µM] | EC50 [2] [µM] |
| --- | --- | --- |
| Clc1cccc(N2CCN(CCCCn3nnc4ccccc43)CC2)c1 [II-29, 1-(4-(4-(3-chlorophenyl)piperazine-1-yl)butyl)-1H-benzotriazole] | 0.977 | 2.29 |
